Experimental data taken from KR20230138688A, “Halenaquinol sulfate를 유효성분으로 포함하는 베타아밀로이드 응집으로 유발되는 질환의 예방 또는 치료용 약학적 조성물” (priority 2022, dated 2023).

Columns and labels:
[1] = system: inhibition of synaptic plasticity (LTP) by beta-amyloid (베타아밀로이드에 의한 시냅스 가소성(LTP) 억제); test: Improvement of beta-amyloid-induced inhibition of synaptic plasticity (LTP), electrophysiology in hippocampal slices; conditions: ICR mouse hippocampal slices; halenaquinol sulfate 10 μM 30 min, then with oligomeric beta-amyloid 1 μM for 2 h; HFS
[2] = target: Acetylcholinesterase (AChE) (Electrophorus electricus, UniProt O42275); test: Acetylcholinesterase (AChE) inhibition, Ellman method; type: biochemical; conditions: acetylthiocholine substrate, DTNB, 405 nm, pH 8.2
[3] = target: T1, beta-amyloid Aβ42 (베타아밀로이드(Aβ)42) (Homo sapiens, UniProt P05067); test: Inhibition of beta-amyloid (Aβ42) aggregation, Thioflavin T fluorescence; type: biochemical; conditions: Aβ42 10 μM; 37 °C, 24 h; ThT 45 μM; 485 nm / 528 nm
T1 construct: Amyloid β 1-42 (Aβ42) 단백질은 DMSO에 1 mM으로 녹여

[4] = target: T2, beta-amyloid Aβ42 aggregates (베타아밀로이드 응집체) (Homo sapiens, UniProt P05067); test: Disaggregation of preformed beta-amyloid (Aβ42) aggregates, Thioflavin T fluorescence; type: biochemical; conditions: Aβ42 pre-incubated 24 h, then 24 h with compound at 37 °C; Aβ42 10 μM; ThT 45 μM
T2 construct: Amyloid β 1-42 (Aβ42) 단백질은 DMSO에 1 mM으로 녹여
T2 sequence (P05067 672-713): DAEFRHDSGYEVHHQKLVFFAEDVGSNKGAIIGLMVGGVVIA

Sequence of Acetylcholinesterase (AChE) (O42275 whole entry): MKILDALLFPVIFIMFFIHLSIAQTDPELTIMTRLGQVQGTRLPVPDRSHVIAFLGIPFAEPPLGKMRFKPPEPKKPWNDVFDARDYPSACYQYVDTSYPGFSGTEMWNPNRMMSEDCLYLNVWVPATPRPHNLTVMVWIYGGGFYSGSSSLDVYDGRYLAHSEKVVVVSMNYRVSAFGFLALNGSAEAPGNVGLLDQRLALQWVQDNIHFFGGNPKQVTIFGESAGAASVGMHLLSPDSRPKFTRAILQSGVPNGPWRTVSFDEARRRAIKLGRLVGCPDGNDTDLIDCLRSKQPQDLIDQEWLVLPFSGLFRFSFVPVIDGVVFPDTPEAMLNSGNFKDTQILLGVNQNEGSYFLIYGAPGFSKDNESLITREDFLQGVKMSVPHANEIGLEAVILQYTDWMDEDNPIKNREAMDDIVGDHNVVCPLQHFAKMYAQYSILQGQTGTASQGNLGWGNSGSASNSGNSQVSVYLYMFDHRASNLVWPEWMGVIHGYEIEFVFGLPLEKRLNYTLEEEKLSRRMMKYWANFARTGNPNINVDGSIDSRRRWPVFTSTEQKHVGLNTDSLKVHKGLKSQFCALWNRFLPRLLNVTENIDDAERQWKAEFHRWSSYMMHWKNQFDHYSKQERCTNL
T1 sequence (P05067 672-713): as the sequence (P05067 672-713) above

## Halenaquinol sulfate
[1]
  suppression of the effect of oligomeric beta-amyloid on LTP: 베타아밀로이드의 효과를 유의적으로 억제
[2]
  IC50: 17.9 µM
  inhibition of acetylcholinesterase activity: 농도의존적으로 acetylcholinesterase 활성을 저해
[3]
  inhibitory activity against beta-amyloid aggregation: 농도 의존적으로 베타아밀로이드(10 μM)의 응집에 대해 저해활성
[4]
  disaggregation of already aggregated beta-amyloid: 농도 의존적으로 이미 응집된 베타아밀로이드 응집체를 분해함
